Test results taken from US20230085307A1, “PYRIDAZINONE COMPOUND AND HERBICIDE” (NISSAN CHEMICAL CORPORATION, priority 2019, published 2023).

Columns and labels:
rice flat sedge = assay: Test Example 3: herbicidal effect by foliage application, Wagner pot (Table 18, symbol E); assay type: in vivo, rice flat sedge (Cyperus iria)
Summary of the method: (§1)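 Plants were sown in alluvial soil held under 0.1–0.5 cm standing water and grown 14 days in a greenhouse at 25–30 °C. An emulsifiable formulation, water-diluted to the set dose, was then sprayed onto the foliage, and effects were scored three weeks later using previously defined criteria.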

late watergrass = assay: Test Example 1: herbicidal activity, application before weed generation under submerged conditions (Table 16, symbol A); assay type: in vivo, late watergrass (Echinochloa oryzicola)
Excerpt: (§2) [Test Example 1] Herbicidal Activity Test by Application before Weed Generation under Submerged Conditions After alluvial soil was placed into 1/10000 are of Wagner pot, water was poured and mixed to form a submerged condition having a water depth of 4 cm. Seeds of late watergrass, Japanese bulrush, and oval-leafed pondweed were sowed in a mixed manner in the aforementioned pot, and then 2.5 leaf stage rice plant seedlings were transplanted thereto. On the day of sowing seeds, the emulsion agent of the compound of the present invention prepared according to Formulation Example 2 was diluted with water so as to achieve a predetermined herbicide amount, and the diluted emulsion agent was applied to the surface of the water. The pot was placed in a greenhouse at 25° C. to 30° C. for growth of the plants. Three weeks after the herbicide application, the effect of the herbicide on each plant was evaluated according to the following criteria. Evaluation Criteria 5: Herbicidal rate of 90% or more (almost completely withered) 4: Herbicidal rate of 70% or more and less than 90% 3: Herbicidal rate of 40% or more and less than 70% 2: Herbicidal rate of 20% or more and less than 40% 1: Herbicidal rate of 5% or more and less than 20% 0: Herbicidal rate of 5% or less (almost no effect)

Chinese sprangletop = assay: Test Example 3: herbicidal effect by foliage application, Wagner pot (Table 18, symbol D); assay type: in vivo, chinese sprangletop (Leptochloa chinensis)
Summary of the method: as §1

barnyard grass = assay: Test Example 3: herbicidal effect by foliage application, Wagner pot (Table 18, symbol H); assay type: in vivo, barnyard grass (Echinochloa crus-galli)
Summary of the method: as §1

Japanese bulrush = assay: Test Example 1: herbicidal activity, application before weed generation under submerged conditions (Table 16, symbol B); assay type: in vivo, Japanese bulrush (Schoenoplectus juncoides)
Excerpt: as §2

oval-leafed pondweed = assay: Test Example 1: herbicidal activity, application before weed generation under submerged conditions (Table 16, symbol C); assay type: in vivo, oval-leafed pondweed (Monochoria vaginalis)
Excerpt: as §2

[1] = amount of applied herbicide 224 g/ha
[2] = amount of applied herbicide 320 g/ha
[3] = amount of applied herbicide 246 g/ha

`Cc1nn(C)c(=O)c(-c2c(-c3cccc(OCC(F)(F)F)c3)sc3ccc(F)cc23)c1O` [2-238] was tested, and the “herbicidal effect on E: rice flat sedge” value (rice flat sedge; [1]) was 3 (Herbicidal rate of 40% or more and less than 70%), the “Herbicidal effect on A: late watergrass (grade 0-5)” value (late watergrass; 224 g/ha applied herbicide) was 3 (Herbicidal rate of 40% or more and less than 70%) and the “herbicidal effect on D: Chinese sprangletop” value (“herbicidal effect on D” below) (Chinese sprangletop; [1]) was 2 (Herbicidal rate of 20% or more and less than 40%). The “herbicidal effect on H: barnyard grass” value (barnyard grass; [1]) was 3 (Herbicidal rate of 40% or more and less than 70%), the “Herbicidal effect on B: Japanese bulrush (grade 0-5)” value (“Herbicidal effect on B” below) (Japanese bulrush; 224 g/ha applied herbicide) was 0 (Herbicidal rate of 5% or less (almost no effect)) and the “Herbicidal effect on C: oval-leafed pondweed (grade 0-5)” value (from here on “Herbicidal effect on C”) (oval-leafed pondweed; 224 g/ha applied herbicide) was 0 (Herbicidal rate of 5% or less (almost no effect)).
`Cc1nn(C)c(=O)c(-c2c(-c3cc(C(F)(F)F)cc(C(F)(F)F)c3)sc3ccc(F)cc23)c1O` [2-358] was tested, and the “herbicidal effect on E: rice flat sedge” value (rice flat sedge; [2]) was 3 (Herbicidal rate of 40% or more and less than 70%), the “Herbicidal effect on A: late watergrass (grade 0-5)” value (late watergrass; 320 g/ha applied herbicide) was 3 (Herbicidal rate of 40% or more and less than 70%) and the “herbicidal effect on D” value (Chinese sprangletop; [2]) was 1 (Herbicidal rate of 5% or more and less than 20%). For the same compound, the “herbicidal effect on H: barnyard grass” value (barnyard grass; [2]) was 3 (Herbicidal rate of 40% or more and less than 70%), the “Herbicidal effect on B” value (Japanese bulrush; 320 g/ha applied herbicide) was 0 (Herbicidal rate of 5% or less (almost no effect)) and the “Herbicidal effect on C” value (oval-leafed pondweed; 320 g/ha applied herbicide) was 0 (Herbicidal rate of 5% or less (almost no effect)).
For `COc1cc(F)ccc1-c1sc2ccc(SC)cc2c1-c1c(O)c(C)nn(C)c1=O` [2-376], the “herbicidal effect on E: rice flat sedge” value (rice flat sedge; [3]) was 3 (Herbicidal rate of 40% or more and less than 70%), the “Herbicidal effect on A: late watergrass (grade 0-5)” value (late watergrass; 246 g/ha applied herbicide) was 3 (Herbicidal rate of 40% or more and less than 70%) and the “herbicidal effect on D” value (Chinese sprangletop; [3]) was 3 (Herbicidal rate of 40% or more and less than 70%). For the same compound, the “herbicidal effect on H: barnyard grass” value (barnyard grass; [3]) was 5 (Herbicidal rate of 90% or more (almost completely withered)), the “Herbicidal effect on B” value (Japanese bulrush; 246 g/ha applied herbicide) was 0 (Herbicidal rate of 5% or less (almost no effect)) and the “Herbicidal effect on C” value (oval-leafed pondweed; 246 g/ha applied herbicide) was 0 (Herbicidal rate of 5% or less (almost no effect)).
